According to patent publication US7279187B2, “Mineral fortification systems” (The Procter & Gamble Company, priority 2003, dated 2007):

Assay: Colour development of iron source when added to water or other aqueous solutions
Format: physicochemical
Source text: Such a color can change the color appearance the food or beverage to which FERROCHEL has been added. In the case of many foods and beverages, this color change would be unacceptable.

NCC(=O)[O-].NCC(=O)[O-].[Fe+2] [FERROCHEL]
Colour imparted when added to water: imparts relatively quickly a deep rusty yellow color
